Assay results from patent EP4782453A1 (Beyang Therapeutics Co., Ltd., priority 2023, dated 2025).

Legend:
Type in all cases: cell-based
KG-1a (wild-type MLL) = assay: Inhibition of proliferation of human tumor cells (Alamar Blue, 7 days), KG-1a control cell line; conditions: 168 h, KG-1a cells (wild-type MLL, control cell line), method calls the value GI50
In short: (§1)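 Cells seeded at 4,000/well (MV-4-11, MOLM-13) or 3,000/well (KG-1a) in serum-supplemented IMDM or RPMI-1640, 37°C, 5% CO2, then exposed to 3- or 4-fold compound dilutions in duplicate for 7 days. Alamar Blue fluorescence read; GI50 derived against Day 7 0.1% DMSO (high) and Day 0 (low) controls.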

[1] = tested on: MOLM-13 (carrying MLL-AF9); assay: Inhibition of proliferation of human tumor cells (Alamar Blue, 7 days), MOLM-13; conditions: Homo sapiens, 168 h, MOLM-13 cells (carrying MLL-AF9), method calls the value GI50
In short: as §1

MEIS1 gene expression = assay: Inhibition of MEIS1 gene expression in human tumor cells (qRT-PCR), MV-4-11; conditions: MV4-11, MV-4-11 (carrying MLL-AF4), 48 hours of incubation, relative MEIS1 gene expression vs GAPDH, read-out: MV-4-11 MEISI EC50
In short: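 MV-4-11 (MLL-AF4; IMDM, 10% FBS), MOLM-13 (MLL-AF9) and OCI-AML3 (NPM1c) (RPMI-1640, 20% FBS) seeded at 100,000 cells/well and treated 48 h with serially diluted compound. MEIS1 mRNA measured by one-step probe qRT-PCR from total RNA, triplicates, GAPDH primer/probe included; EC50 for inhibition of relative MEIS1 expression.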

Row | Compound | IC50 (KG-1a (wild-type MLL)) [nM] | IC50 [1] [nM] | EC50 (MEIS1 gene expression) [nM]
1 | Cc1nc(F)c2c(-c3ccc(F)cc3C(=O)N3CCOC[C@H]3C)cc(C3CN([C@H](CCCN4CCN(C5CC5)CC4)C(C)C)C3)cn12 [Example 350] | 12000 | 4.6 | 6.8
2 | Cc1nc(F)c2c(-c3ccc(F)cc3C(=O)N3CCOC[C@H]3C)cc(C3CN([C@H](CCCN4C[C@H]5C[C@@H]4CO5)C(C)C)C3)cn12 [Example 353, (1R,4R)-5-[(4R)-4-[3-(1-fluoro-8-{4-fluoro-2-[(3R)-3-methylmorpholin-4-carbonyl]phenyl}-3-methylimidazo[1,5-a]pyridin-6-yl)azacyclobutan-1-yl]-5-methylhexyl]-2-oxa-5-azabicyclo[2.2.1]heptane] | > 20000 | 5.4 | 7.4
3 | Cc1nc(F)c2c(-c3ccc(F)cc3C(=O)N3CCOC[C@H]3C)cc(C3CN([C@H](CN4CCN(C)CC4)C(C)C)C3)cn12 [Example 368-2, (3R)-4-[5-fluoro-2-(1-fluoro-3-methyl-6-{1-[(2S)-3-methyl-1-(4-methylpiperazin-1-yl)butan-2-yl]azacyclobutan-3-yl}imidazo[1,5-a]pyridin-8-yl)benzoyl]-3-methylmorpholine] | 13000 | 8.6 | 7.8
4 | CCN(C(=O)c1cc(F)ccc1-c1cc(C2CN([C@H](CCCN3CCN(CCO)CC3)C(C)C)C2)cn2c(C)ncc12)C(C)C [Example 398, N-ethyl-5-fluoro-2-(6-{1-[(3R)-6-[4-(2-hydroxyethyl)piperazin-1-yl]-2-methylhexan-3-yl]azacyclobutan-3-yl}-3-methylimidazo[1,5-a]pyridin-8-yl)-N-(isopropyl)benzamide] | > 20000 | 4.3 | 1.9

Continued, values first:

Row | IC50 (KG-1a (wild-type MLL)) [nM] | IC50 [1] [nM] | EC50 (MEIS1 gene expression) [nM] | Compound
5 | > 20000 | 5.3 | 3 | Cc1nc(F)c2c(-c3ccc(F)cc3C(=O)N3CCOC[C@H]3C)cc(C3CN(C(CC[C@@H]4COCCN4)C(C)C)C3)cn12 (stereo partly drawn) [Example 371, (3R)-4-{5-fluoro-2-[1-fluoro-3-methyl-6-(1-{4-methyl-1-[(3R)-morpholin-3-yl]pentan-3-yl}azacyclobutan-3-yl)imidazo[1,5-a]pyridin-8-yl]benzoyl}-3-methylmorpholine]
6 | 11500 | 2.5 | 2.4 | CCN(C(=O)c1cc(F)ccc1-c1cc(C2CN([C@H](CCCN3C[C@H]4C[C@@H]3CO4)C(C)C)C2)cn2c(C)ncc12)C(C)C [Example 379, N-ethyl-5-fluoro-2-(3-methyl-6-{1-[(3R)-2-methyl-6-[(1R,4R)-2-oxa-5-azabicyclo[2.2.1]heptan-5-yl]hexan-3-yl]azacyclobutan-3-yl}imidazo[1,5-a]pyridin-8-yl)-N-(isopropyl)benzamide]
